Values after ≈ are worked out from the molar mass of the structure shown.
How the values were obtained:
Assay type in all cases: functional
Staphylococcus aureus [1] = assay: Minimum inhibitory concentration required for the antibacterial activity against Staphylococcus aureus 25470
Staphylococcus aureus [2] = assay: Minimum inhibitory concentration required for the antibacterial activity against Staphylococcus aureus 4978 Israel
Staphylococcus aureus [3] = assay: Minimum inhibitory concentration required for the antibacterial activity against Staphylococcus aureus 13N Munchen
Staphylococcus aureus [4] = assay: Minimum inhibitory concentration required for the antibacterial activity against Staphylococcus aureus 17N Munchen
Staphylococcus aureus [5] = assay: Minimum inhibitory concentration required for the antibacterial activity against Staphylococcus aureus 77 Innsbruck
Staphylococcus aureus [6] = assay: Minimum inhibitory concentration required for the antibacterial activity against Staphylococcus aureus 90 Innsbruck
Staphylococcus aureus [7] = assay: Minimum inhibitory concentration required for the antibacterial activity against Staphylococcus aureus 25463
Staphylococcus aureus [8] = assay: Minimum inhibitory concentration required for the antibacterial activity against Staphylococcus aureus 25085
Staphylococcus aureus [9] = assay: Minimum inhibitory concentration required for the antibacterial activity against Staphylococcus aureus 25768
Staphylococcus aureus [10] = assay: Minimum inhibitory concentration required for the antibacterial activity against Staphylococcus aureus 48N Munchen
Staphylococcus aureus [11] = assay: Minimum inhibitory concentration required for the antibacterial activity against Staphylococcus aureus 25464
Staphylococcus aureus [12] = assay: Minimum inhibitory concentration required for the antibacterial activity against Staphylococcus aureus 41h Belgium
Staphylococcus aureus [13] = assay: Minimum inhibitory concentration required for the antibacterial activity against Staphylococcus aureus 79B Innsbruck
Staphylococcus aureus [14] = assay: Minimum inhibitory concentration required for the antibacterial activity against Staphylococcus aureus 1756; conditions: Staphylococcus aureus; read-out: MIC
Staphylococcus aureus [15] = assay: Minimum inhibitory concentration required for the antibacterial activity against Staphylococcus aureus 21b Belgium
Staphylococcus aureus [16] = assay: Minimum inhibitory concentration required for the antibacterial activity against Staphylococcus aureus 25697
Staphylococcus aureus [17] = assay: Minimum inhibitory concentration required for the antibacterial activity against Staphylococcus aureus 86 Innsbruck
Bacteroides fragilis [18] = assay: Minimum inhibitory concentration required for the antibacterial activity against Bacillus fragilis Kr 1 TV
Bacteroides fragilis [19] = assay: Minimum inhibitory concentration required for the antibacterial activity against Bacillus fragilis 4661 Kr
Clostridium sporogenes = assay: Minimum inhibitory concentration required for the antibacterial activity against Clostridium sporogenes
Bacteroides fragilis [20] = assay: Minimum inhibitory concentration required for the antibacterial activity against Bacillus fragilis L 1168 Italien
Bacteroides fragilis [21] = assay: Minimum inhibitory concentration required for the antibacterial activity against Bacillus fragilis 4891/91 Kr
Clostridium butyricum = assay: Minimum inhibitory concentration required for the antibacterial activity against Clostridium butyricum
Clostridium septicum = assay: Minimum inhibitory concentration required for the antibacterial activity against Clostridium septicum
Bacteroides fragilis [22] = assay: Minimum inhibitory concentration required for the antibacterial activity against Bacillus fragilis 2034/35 Kr 43
[23] = tested on: Parabacteroides distasonis; assay: Minimum inhibitory concentration required for the antibacterial activity against Bacillus distasonis Heidelberg
Fusobacterium nucleatum = assay: Minimum inhibitory concentration required for the antibacterial activity against Fusobacterium nucleatum DSM 20482
[24] = tested on: Peptoniphilus asaccharolyticus; assay: Minimum inhibitory concentration required for the antibacterial activity against Peptococcus asacchar. DSM 20463
Thomasclavelia ramosa = assay: Minimum inhibitory concentration required for the antibacterial activity against Clostridium ramosum DSM 1402
Bacteroides fragilis [25] = assay: Minimum inhibitory concentration required for the antibacterial activity against Bacillus fragilis ES 25
[26] = tested on: Parabacteroides distasonis; assay: Minimum inhibitory concentration required for the antibacterial activity against Bacillus distasonis Kr
Bacteroides fragilis [27] = assay: Minimum inhibitory concentration required for the antibacterial activity against Bacillus fragilis 010848
Clostridium perfringens [28] = assay: Minimum inhibitory concentration required for the antibacterial activity against Clostridium perfringens DSM 756
[29] = tested on: Prevotella melaninogenica; assay: Minimum inhibitory concentration required for the antibacterial activity against Bacillus melaninogenicus Heidelberg
Phocaeicola vulgatus = assay: Minimum inhibitory concentration required for the antibacterial activity against Bacillus valgatus Kr III
Bacteroides fragilis [30] = assay: Minimum inhibitory concentration required for the antibacterial activity against Bacillus fragilis Kr II
[31] = tested on: Bacteroides thetaiotaomicron; assay: Minimum inhibitory concentration required for the antibacterial activity against Bacillus thetaiotaomicron DSM 2079
[32] = tested on: Peptostreptococcus anaerobius; assay: Minimum inhibitory concentration required for the antibacterial activity against Peptostrept. anaer. Kr I
[33] = tested on: Fusobacterium necrophorum; assay: Minimum inhibitory concentration required for the antibacterial activity against Sphaerophorus necrophorus Kr
Clostridium perfringens [34] = assay: Minimum inhibitory concentration required for the antibacterial activity against Clostridium perfringens 24072
Bacteroides fragilis [35] = assay: Minimum inhibitory concentration required for the antibacterial activity against Bacillus fragilis 1560 I/82
Clostridium perfringens [36] = assay: Minimum inhibitory concentration required for the antibacterial activity against Clostridium perfringens 1024027
Anaerococcus prevotii = assay: Minimum inhibitory concentration required for the antibacterial activity against Peptococcus prevotii DSM 20548
Bacteroides fragilis [37] = assay: Minimum inhibitory concentration required for the antibacterial activity against Bacillus fragilis GA I - 0558 Japan
Bacteroides fragilis [38] = assay: Minimum inhibitory concentration required for the antibacterial activity against Bacillus fragilis DSM 2151
[39] = tested on: Bacteroides thetaiotaomicron; assay: Minimum inhibitory concentration required for the antibacterial activity against Bacillus thetaiotaomicron 235 Munchen
Clostridium perfringens [40] = assay: Minimum inhibitory concentration required for the antibacterial activity against Clostridium perfringens 24071
[41] = tested on: Prevotella melaninogenica; assay: Minimum inhibitory concentration required for the antibacterial activity against Bacillus melaninogenicus Kr
[42] = tested on: Peptostreptococcus anaerobius; assay: Minimum inhibitory concentration required for the antibacterial activity against Peptostrept. anaer. Kr II
[43] = tested on: Peptostreptococcus anaerobius; assay: Minimum inhibitory concentration required for the antibacterial activity against Peptostrept. anaer. DSM 20357
[44] = tested on: Peptostreptococcus anaerobius; assay: Minimum inhibitory concentration required for the antibacterial activity against Peptostrept. anaer. 222 I/82
Bacteroides fragilis [45] = assay: Minimum inhibitory concentration required for the antibacterial activity against Bacillus fragilis 06688

CC1(C)S[C@@H]2[C@H](NC(=O)[C@H](N)c3ccccc3)C(=O)N2[C@H]1C(=O)O [AMPICILLIN]
MIC (Staphylococcus aureus [1]): 50 µg/mL (≈ 143 µM) | MIC (Staphylococcus aureus [2]): 1.56 µg/mL (≈ 4.46 µM) | MIC (Staphylococcus aureus [3]): 50 µg/mL (≈ 143 µM) | MIC (Staphylococcus aureus [4]): 25 µg/mL (≈ 71.5 µM) | MIC (Staphylococcus aureus [5]): 50 µg/mL (≈ 143 µM) | MIC (Staphylococcus aureus [6]): 50 µg/mL (≈ 143 µM) | MIC (Staphylococcus aureus [7]): 50 µg/mL (≈ 143 µM) | MIC (Staphylococcus aureus [8]): 50 µg/mL (≈ 143 µM) | MIC (Staphylococcus aureus [9]): 50 µg/mL (≈ 143 µM) | MIC (Staphylococcus aureus [10]): 50 µg/mL (≈ 143 µM) | MIC (Staphylococcus aureus [11]): 50 µg/mL (≈ 143 µM) | MIC (Staphylococcus aureus [12]): 50 µg/mL (≈ 143 µM) | MIC (Staphylococcus aureus [13]): 50 µg/mL (≈ 143 µM) | MIC (Staphylococcus aureus [14]): 50 µg/mL (≈ 143 µM) | MIC (Staphylococcus aureus [15]): > 100 µg/mL | MIC (Staphylococcus aureus [16]): 25 µg/mL (≈ 71.5 µM) | MIC (Staphylococcus aureus [17]): 50 µg/mL (≈ 143 µM)

CO/N=C(\C(=O)N[C@@H]1C(=O)N2C(C(=O)O)=C(COC(C)=O)CS[C@H]12)c1csc(N)n1 [CEFOTAXIME]
MIC (Bacteroides fragilis [18]): 1 µg/mL (≈ 2.2 µM) | MIC (Bacteroides fragilis [19]): 4 µg/mL (≈ 8.78 µM) | MIC (Clostridium sporogenes): 0.5 µg/mL (≈ 1.1 µM) | MIC (Bacteroides fragilis [20]): 4 µg/mL (≈ 8.78 µM) | MIC (Bacteroides fragilis [21]): 4 µg/mL (≈ 8.78 µM) | MIC (Clostridium butyricum): 1 µg/mL (≈ 2.2 µM) | MIC (Clostridium septicum): 128 µg/mL (≈ 281 µM) | MIC (Bacteroides fragilis [22]): > 128 µg/mL | MIC [23]: 2 µg/mL (≈ 4.39 µM) | MIC (Fusobacterium nucleatum): 0.5 µg/mL (≈ 1.1 µM) | MIC [24]: ≤ 0.25 µg/mL | MIC (Thomasclavelia ramosa): 2 µg/mL (≈ 4.39 µM) | MIC (Bacteroides fragilis [25]): 4 µg/mL (≈ 8.78 µM) | MIC [26]: 2 µg/mL (≈ 4.39 µM) | MIC (Bacteroides fragilis [27]): 16 µg/mL (≈ 35.1 µM) | MIC (Clostridium perfringens [28]): ≤ 0.25 µg/mL | MIC [29]: 2 µg/mL (≈ 4.39 µM) | MIC (Phocaeicola vulgatus): 2 µg/mL (≈ 4.39 µM) | MIC (Bacteroides fragilis [30]): 2 µg/mL (≈ 4.39 µM) | MIC [31]: 128 µg/mL (≈ 281 µM) | MIC [32]: 32 µg/mL (≈ 70.3 µM) | MIC [33]: 1 µg/mL (≈ 2.2 µM) | MIC (Clostridium perfringens [34]): 0.5 µg/mL (≈ 1.1 µM) | MIC (Bacteroides fragilis [35]): 2 µg/mL (≈ 4.39 µM) | MIC (Clostridium perfringens [36]): ≤ 0.25 µg/mL | MIC (Anaerococcus prevotii): 8 µg/mL (≈ 17.6 µM) | MIC (Bacteroides fragilis [37]): 8 µg/mL (≈ 17.6 µM) | MIC (Bacteroides fragilis [38]): 4 µg/mL (≈ 8.78 µM) | MIC [39]: 128 µg/mL (≈ 281 µM) | MIC (Clostridium perfringens [40]): 2 µg/mL (≈ 4.39 µM) | MIC [41]: 2 µg/mL (≈ 4.39 µM) | MIC [42]: ≤ 0.25 µg/mL | MIC [43]: 16 µg/mL (≈ 35.1 µM) | MIC [44]: 0.5 µg/mL (≈ 1.1 µM) | MIC (Bacteroides fragilis [45]): 2 µg/mL (≈ 4.39 µM)

CO[C@@]1(NC(=O)Cc2cccs2)C(=O)N2C(C(=O)O)=C(COC(N)=O)CS[C@@H]21 [CEFOXITIN]
MIC (Staphylococcus aureus [1]): > 100 µg/mL | MIC (Staphylococcus aureus [2]): 1.56 µg/mL (≈ 3.65 µM) | MIC (Staphylococcus aureus [3]): > 100 µg/mL | MIC (Staphylococcus aureus [4]): 12.5 µg/mL (≈ 29.2 µM) | MIC (Staphylococcus aureus [5]): 25 µg/mL (≈ 58.5 µM) | MIC (Staphylococcus aureus [6]): 100 µg/mL (≈ 234 µM) | MIC (Staphylococcus aureus [7]): 1.56 µg/mL (≈ 3.65 µM) | MIC (Staphylococcus aureus [8]): 12.5 µg/mL (≈ 29.2 µM) | MIC (Staphylococcus aureus [9]): 12.5 µg/mL (≈ 29.2 µM) | MIC (Staphylococcus aureus [10]): 6.25 µg/mL (≈ 14.6 µM) | MIC (Staphylococcus aureus [11]): 50 µg/mL (≈ 117 µM) | MIC (Staphylococcus aureus [12]): 1.56 µg/mL (≈ 3.65 µM) | MIC (Staphylococcus aureus [13]): 25 µg/mL (≈ 58.5 µM) | MIC (Staphylococcus aureus [14]): 50 µg/mL (≈ 117 µM) | MIC (Staphylococcus aureus [15]): ≤ 0.78 µg/mL | MIC (Staphylococcus aureus [16]): 12.5 µg/mL (≈ 29.2 µM) | MIC (Staphylococcus aureus [17]): 12.5 µg/mL (≈ 29.2 µM)

O=C(O)c1cn(C2CC2)c2cc(N3CCNCC3)c(F)cc2c1=O [CIPROFLOXACIN]
MIC (Staphylococcus aureus [1]): ≤ 0.78 µg/mL | MIC (Staphylococcus aureus [2]): ≤ 0.78 µg/mL | MIC (Staphylococcus aureus [3]): 1.56 µg/mL (≈ 4.71 µM) | MIC (Staphylococcus aureus [4]): 12.5 µg/mL (≈ 37.7 µM) | MIC (Staphylococcus aureus [5]): > 100 µg/mL | MIC (Staphylococcus aureus [6]): 12.5 µg/mL (≈ 37.7 µM) | MIC (Staphylococcus aureus [7]): 1.56 µg/mL (≈ 4.71 µM) | MIC (Staphylococcus aureus [8]): ≤ 0.78 µg/mL | MIC (Staphylococcus aureus [9]): 100 µg/mL (≈ 302 µM) | MIC (Staphylococcus aureus [10]): 12.5 µg/mL (≈ 37.7 µM) | MIC (Staphylococcus aureus [11]): ≤ 0.78 µg/mL | MIC (Staphylococcus aureus [12]): 100 µg/mL (≈ 302 µM) | MIC (Staphylococcus aureus [13]): 100 µg/mL (≈ 302 µM) | MIC (Staphylococcus aureus [14]): ≤ 0.78 µg/mL | MIC (Staphylococcus aureus [15]): 50 µg/mL (≈ 151 µM) | MIC (Staphylococcus aureus [16]): 12.5 µg/mL (≈ 37.7 µM) | MIC (Staphylococcus aureus [17]): 100 µg/mL (≈ 302 µM)
